This assay deals with T1, NLRP3 (Mus musculus, UniProt Q8R4B8).
T1 construct: full length recombinant NLRP3 protein (N-Flag, expressed in Expi293F cells)
In words: intrinsic fluorescence spectroscopy titration (ex […]/em […] nm); supported by Western blot thermal shift ([…] to […] °C). The format is binding. (In general: Immunoblotting shows a protein as a band on a membrane.)

T1 sequence (Q8R4B8 whole entry): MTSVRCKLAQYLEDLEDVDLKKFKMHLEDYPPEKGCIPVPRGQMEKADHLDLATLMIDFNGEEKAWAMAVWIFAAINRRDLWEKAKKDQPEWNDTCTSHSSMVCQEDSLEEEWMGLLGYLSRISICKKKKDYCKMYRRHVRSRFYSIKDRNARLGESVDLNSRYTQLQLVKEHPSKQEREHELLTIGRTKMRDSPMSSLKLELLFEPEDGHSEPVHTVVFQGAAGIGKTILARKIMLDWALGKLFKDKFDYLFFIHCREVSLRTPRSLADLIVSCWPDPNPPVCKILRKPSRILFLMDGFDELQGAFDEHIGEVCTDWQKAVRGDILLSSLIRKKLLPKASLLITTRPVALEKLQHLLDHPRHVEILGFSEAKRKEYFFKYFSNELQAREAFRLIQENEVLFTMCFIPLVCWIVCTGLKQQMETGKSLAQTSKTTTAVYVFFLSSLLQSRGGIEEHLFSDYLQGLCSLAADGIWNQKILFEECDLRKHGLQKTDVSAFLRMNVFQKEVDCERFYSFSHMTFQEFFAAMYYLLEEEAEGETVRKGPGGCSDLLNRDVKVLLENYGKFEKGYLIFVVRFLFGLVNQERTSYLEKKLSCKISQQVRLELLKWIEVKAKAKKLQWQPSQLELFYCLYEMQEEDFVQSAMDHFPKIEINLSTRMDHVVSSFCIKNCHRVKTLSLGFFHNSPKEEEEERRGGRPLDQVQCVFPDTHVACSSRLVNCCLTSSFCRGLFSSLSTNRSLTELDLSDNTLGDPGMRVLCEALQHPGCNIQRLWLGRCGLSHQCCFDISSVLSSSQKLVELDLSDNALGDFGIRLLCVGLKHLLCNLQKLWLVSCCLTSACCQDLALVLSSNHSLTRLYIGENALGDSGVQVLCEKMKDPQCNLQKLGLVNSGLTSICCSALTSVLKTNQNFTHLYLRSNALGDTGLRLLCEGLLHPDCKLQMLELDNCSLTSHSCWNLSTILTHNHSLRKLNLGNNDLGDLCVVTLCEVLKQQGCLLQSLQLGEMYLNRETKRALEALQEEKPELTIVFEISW

Broadly, the Kd is the equilibrium constant for the complex coming apart. Consider `CCCOc1ccc(Cl)cc1CN(CCc1ccc(S(=O)(=O)N2CCOCC2)cc1)C(=O)Cc1ccsc1` [YM-I-26], for which the Kd stood at 560 ± 30.3 nM.

Source of the values: paper PMC11450741, “Functional Characterization of an Arylsulfonamide-Based Small-Molecule Inhibitor of the NLRP3 Inflammasome” (ACS Chemical Neuroscience, 2024).
